In ChEMBL document CHEMBL1129940, “Cytotoxicity of platinum (II) dinuclear complexes with 1-alkylthymine ligands against mouse sarcoma 180 cells” (J Med Chem, 1997):

System: CCRF S-180
Assay: In vitro inhibitory concentration against growth of mouse sarcoma 180 (S-180) cells
Format: functional, cell-based

CISPLATIN
IC50: 1070 nM
